In PubChem BioAssay (NCI):
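All cell lines were grown in 96-well plates and treated with compound for 48 hours. TGI denotes the concentration required for complete inhibition of growth.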

What was measured:
Assay in all cases: NCI tumour cell line growth inhibition, 48 h
DLD-1 colon = test system: DLD-1 colon
DMS 114 small cell lung = test system: DMS 114 small cell lung
DMS 273 small cell lung = test system: DMS 273 small cell lung
HOP-18 NSCLC = test system: HOP-18 NSCLC
LXFL 529 NSCLC = test system: LXFL 529 NSCLC
M19-MEL melanoma = test system: M19-MEL melanoma
KM20L2 colon = test system: KM20L2 colon
SNB-78 CNS = test system: SNB-78 CNS
XF 498 CNS = test system: XF 498 CNS

Measured: TGI

COc1ccc(C2S/C(=C\c3cccc([N+](=O)[O-])c3)C(=O)N2NC(=O)Cc2ccccc2)cc1 (stereo not given)
not listed: KM20L2 colon | SNB-78 CNS | XF 498 CNS
> 100 µM: all other assays above

CCC(/C=C/c1ccccc1)=N\N=C(\C=C\c1ccccc1)CC
not listed: DMS 114 small cell lung | HOP-18 NSCLC
> 100 µM: all other assays above

CCCN1CN(C(C(=O)N[C@@H]2C(=O)N3C(C(=O)O)=C(C)CSC23)c2ccccc2)CSC1=S (stereo not given in full)
not listed: DMS 114 small cell lung | XF 498 CNS
> 100 µM: all other assays above
